The subject of one data set is immune system receptor. Put plainly: Immune system GnRH receptor binding. Details: species or system human. The source says: The receptor binding activity of non-mammalian GnRH (SEQ ID NO: 6 and SEQ ID NO: 7) and non-mammalian GnRH analogs (SEQ ID NO: 2 and SEQ ID NO: 4) of the present invention will be compared. There is a human non-mammalian GnRH receptor which is distinct from the GnRH I receptor at the pituitary. […] They have also been designed to limit degradation by the immune system enzymes, present in lymphatic circulation. Binding activity of the newly synthesized non-mammalian GnRH analogs (SEQ ID NO: 2 and SEQ ID NO: 4) has been studied in plasma.
The newly synthesized non-mammalian GnRH analogs (SEQ ID NO: 2 and SEQ ID NO: 4) and other commercially available analogs have been used in receptor binding studies in plasma and enzyme stability study described here. On the basis of these studies, the most receptor potent and most enzyme-stable analogs have been chosen for further biopotency studies. GnRH receptors have been purified from the fractions from immune system tissues. The purification procedure for the GnRH receptor utilized ethanol precipatation of the receptor and not the GnRH. The remaining non-mammalian GnRH binding assays activity using ^125I-D-Arg-GnRH II-Aza-Gly-2^125 label and GnRH II have been performed. Receptors from two different tissues from the same type of immune system cells have been used to study each of these analogs. […]

In a further data set the test system is human leukocytes. Nature of the data set: Cytokine release from cultured human leukocytes. Particulars: for effect on IL-4 production / effect on IL-8 production / effect on IL-10 production / effect on Interferon γ (INFγ) production: 2×10^−9 to 2×10^−7 M at 1, 3 and 20 hours; for activity on immune systems cytokines: compared among GnRH forms, varying doses. Type of data set: cell-based. On the procedure: Tissues of the immune system have been examined for the ability of their cells in vitro to respond to GnRH II (SEQ ID NO: 6) in culture medium. The media from cell cultures of immune system tissues have been examined for the release of cytokine into the medium after incubation with and without GnRH II analog (SEQ ID NO: 2).
Cell cultures of human leukocytes tissues have been prepared. […] The release of cytokines into the medium have been determined and compared for each form of GnRH studied.
We studied the effect of cytokines primarily produced by T cells. […] Concentrations of 2×10^−9 to 2×10^−7 M at 1, 3 and 20 hours were studied.
We have also studied cytokine produced primarily by B cells and macrophages. […] This is consistent with opposing activities followed by downregulation of the receptors with chronic high concentrations of the ligand.
Using our GnRH II analog (SEQ ID NO: 2) an inhibition of GM-CSF was clearly apparent after 20 hours of exposure.

A further data set concerns placental GnRH receptor. The note with it: cited from earlier work.
In a further data set the test system is T cells. Particulars: effects only seen after twenty-four hours; cited from earlier work.
Another data set deals with rhesus monkeys. Particulars: chronic administration, long-acting; cited from earlier work.
Data set [1] deals with T1, human pituitary GnRH receptor (Homo sapiens, UniProt P30968).
T1 sequence (P30968 1-328): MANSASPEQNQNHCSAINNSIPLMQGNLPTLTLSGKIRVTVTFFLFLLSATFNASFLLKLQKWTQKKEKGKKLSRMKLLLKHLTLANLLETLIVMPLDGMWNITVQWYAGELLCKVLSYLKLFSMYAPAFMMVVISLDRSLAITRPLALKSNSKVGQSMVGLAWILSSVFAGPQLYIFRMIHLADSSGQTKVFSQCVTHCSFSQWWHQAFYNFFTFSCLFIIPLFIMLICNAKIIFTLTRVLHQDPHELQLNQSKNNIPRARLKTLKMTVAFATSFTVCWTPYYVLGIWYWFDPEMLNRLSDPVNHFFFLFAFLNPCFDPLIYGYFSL
The note with it: cited from earlier work.

Data set [2] in a line: Whole blood, plasma and serum stability of GnRH II analog. Type of data set: in vitro ADME. On the procedure:
FIG. 2 is a graph showing stability of GnRH II analog in blood and plasma. GnRH II Analog is stable throughout twenty-four hour of incubation in plasma and for the seventeen hours in serum following the initial serum formation.
The enzymatic degradation of the non-mammalian GnRH (SEQ ID NO: 6) and its analog (SEQ ID NO: 2) were studied using whole blood and plasma stability studies. A peptidase present in the immune system was used. Non-mammalian GnRH analogs (SEQ ID NO: 2) were designed with these specific criteria in mind. The stability of these non-mammalian GnRH analogs (SEQ ID NO: 2) to the enzymatic activity of the peptidase and in immune system cells were examined.
Each of these analogs was then studied for their ability to resist degradation over time of incubation with the immune system cells at 37° C. The reaction was stopped by freezing and the remaining GnRH I substrate, GnRH II substrate or non-mammalian analog was directly quantified by radioimmunoassay.
Studies using whole immune system cells were also performed. […] FIG. 2 is a graph showing stability of GnRH II in blood and plasma.

A further data set relates to human placental explants. The note with it: in vitro; cited from earlier work.
Setting [3] is: after one hour of treatment, still observed at 3 and 20 hours.

Square brackets hold non-standard residues; d marks the D form. Ends that are not written are not given here. Peptide text beside a SMILES is read from it. pGlu = O=C1CC[C@@H](C(=O)O)N1; azaGly = NNC(=O)O

This is an account of results in patent publication US20050043245A1, “Non-mammalian GnRH analogs and uses thereof in the immune system” (priority 2003, published 2005).

For the molecule “salmon GnRH analog: salmon GnRH sequence modified at the 6 position using D-Arg and at the 10 position (ethylamide or aza-Gly^10-NH2)”, in the data set with immune system receptor, the “affinity for the immune system receptor relative to GnRH I” value is reported as “greater affinity”.

With `CCNC(=O)[C@@H]1CCCN1C(=O)[C@H](CCCNC(=N)N)NC(=O)[C@H](CC(C)C)NC(=O)[C@@H](COC(C)(C)C)NC(=O)[C@H](Cc1ccc(O)cc1)NC(=O)[C@H](CO)NC(=O)[C@H](Cc1c[nH]c2ccccc12)NC(=O)[C@H](Cc1cnc[nH]1)NC(=O)[C@@H]1CCC(=O)N1` [Buserelin], in the data set on human leukocytes, the “effect on IL-4 production” value is “no effects”, the “effect on IL-8 production” value is on record as “no effects”, the “effect on IL-10 production” value is recorded as “no effects” and the “effect on Interferon γ (INFγ) production” value was “no effects”. Also, the “effect on Interleukin 12 (IL-12)” value in the data set with human leukocytes (setting [3]) is on record as “inhibited”.

For the molecule “GnRH II: chicken II GnRH, natural non-mammalian GnRH isoform ([pGlu]HWSHGWYPG; ends and bridges not checked; listed as Gallus gallus)”, the “affinity for the placental GnRH receptor” value in the data set with placental GnRH receptor was “higher affinity”. The “T cells adhesion and homing” value with T cells is on record as “stimulates”. Moreover, in the data set on rhesus monkeys, the contraceptive effect result was “effective contraceptive agent”. Besides, in the data set on human leukocytes, the “effect on IL-4 production” value was “no effects”, the “effect on IL-8 production” value is on record as “no effects”, the “effect on IL-10 production” value was “no effects” and the “effect on Interferon γ (INFγ) production” value is “no effects”. In addition, in the data set with human leukocytes, the “activity on immune systems cytokines” value is “greater activity”. Besides, the “effect on Interleukin 12 (IL-12)” value in the data set with human leukocytes (at 3 hours) is given as “inhibition”. Further, the “effect on GM-CSF release” value with human leukocytes (high dose, 3 hrs) is listed as “inhibits”. The “effect on GM-CSF release” value in the data set on human leukocytes (low dose, 3 hrs) was “potent stimulant”. In addition, the “affinity for the human pituitary GnRH receptor” value in data set [1] was “lesser affinity”.

Take “salmon GnRH: natural non-mammalian GnRH isoform of salmon ([pGlu]HWSYGWLPG; ends and bridges not checked)”: the “affinity for the placental GnRH receptor” value in the data set on placental GnRH receptor is reported as “higher affinity”. Also, the “affinity for the human pituitary GnRH receptor” value in data set [1] is on record as “lesser affinity”.

For the molecule `N=C(N)NCCC[C@@H](NC(=O)[C@H](Cc1c[nH]cn1)NC(=O)[C@H](CO)NC(=O)[C@H](Cc1c[nH]c2ccccc12)NC(=O)[C@H](Cc1c[nH]cn1)NC(=O)[C@@H]1CCC(=O)N1)C(=O)N[C@@H](Cc1c[nH]c2ccccc12)C(=O)N[C@@H](Cc1ccc(O)cc1)C(=O)N1CCC[C@H]1C(=O)NNC(N)=O` [GnRH II analog, D-Arg-GnRH II-aza-Gly-amide] ([pGlu]HWSH[dR]WYP[azaGly]-NH2), the stability in serum result in data set [2] (seventeen hours in serum following the initial serum formation) was “stable”. Further, the stability in plasma result in data set [2] (throughout twenty-four hour of incubation in plasma) is listed as “stable”. Besides, in the data set on human leukocytes, the “effect on IL-4 production” value is “no effects”, the “effect on IL-8 production” value is on record as “no effects”, the “effect on IL-10 production” value is “no effects” and the “effect on Interferon γ (INFγ) production” value is given as “no effects”. In addition, the “activity on immune systems cytokines” value with human leukocytes is listed as “most active”. In addition, the “effect on GM-CSF release” value in the data set on human leukocytes (20 hours) is on record as “inhibition”. In the data set on human leukocytes (setting [3]), the “effect on Interleukin 12 (IL-12)” value is on record as “inhibited”. The “affinity for the immune system receptor relative to GnRH I” value with immune system receptor is “greater affinity”.

For the molecule [N-Ac-Pro,D-p-Cl-Phe,D-Nal(2)]-GnRH I, in the data set on human placental explants, the hCG production/release result is recorded as “inhibition”, the “placental prostanoids / basal prostaglandin production” value is reported as “inhibited” and the progesterone production result is reported as “dramatically suppressed”.
